Laboratory results as given in article PMC9598561, “Antileishmanial Activity of 4,8-Dimethoxynaphthalenyl Chalcones on Leishmania amazonensis” (Antibiotics, 2022).

Key:
[1] = tested on: L. amazonensis intracellular amastigotes; assay: Antiamastigote assay in infected J774A.1 macrophages; format: cell-based, Leishmania amazonensis; settings: 24 h; for reduction of infected macrophages: mean ± SEM
Protocol: Murine macrophages J774A.1 (5 × 10^5 cell/mL) were cultivated in 24-well plates. After infection, the non-internalized promastigotes were removed by washing with PBS, and the adherent macrophages infected were treated with the most promising chalcone (4f) in non-cytotoxic concentrations (10, 25, 50, and 130 μM) for 24 h (37 °C, 5% CO2). RPMI 1640 medium, DMSO (0.01%), and AmB (1 μM) were used as a negative control, vehicle, and positive control, respectively. Then, cells were stained with Leishman (Laborclin, Pinhais, Brazil), and 20 fields were analyzed by increased immersion (1000× magnification) using an optical microscope (Olympus BX41, Olympus Optical Co., Ltd., Tokyo, Japan) to determine the % of infected macrophages and the number of amastigotes/cells.

[2] = Cytotoxicity on murine macrophages, MTT assay; format: cell-based; settings: mouse, J774A.1 macrophage cell line, J774A.1 macrophages, CC50 ± SEM
Protocol: The cytotoxic effect of compounds 4a–i on murine macrophage cell lines J774A.1 (TIB-67, ATCC, Manassas, VA, USA) was assessed using the MTT assay (3-(4,5-dimethylthiazol-2-yl)-2,5-diphenyltetrazolium bromide) (Sigma-Aldrich, St. Louis, MO, USA), [14]. Macrophages were seeded in 96-well plates at a density of 10^4 cells/well and were cultured with 4a–i at different concentrations (10, 25, 50, and 130 µM) for 24 h (37 °C, 5% CO2). The cells were washed, MTT (5 mg/mL) added, and the cells were incubated for 4 h. The MTT product was diluted with 100 μL of DMSO (Sigma-Aldrich, St. Louis, MO, USA) and analyzed at 550 nm in a spectrophotometer (Thermo Fisher Scientific, Multiskan GO, Waltham, MA, USA) at 550 nm. 0.5% H2O2 (Merck, Darmstadt, Germany) was used as a positive control. The results were expressed as the percentage of viable cells compared to the control group. The cytotoxic concentration for 50% of the cells (CC50) was calculated by nonlinear regression to the dose-response curve using GraphPad Prism statistical software (GraphPad Software, Inc., San Diego, CA, USA, 500.288).
(§1) The half-maximal inhibitory concentration for 50% of parasites (IC50) was determined on L. amazonensis promastigotes treated with the nine compounds, and the cytotoxic concentration that causes the death of 50% of cells (CC50) on murine macrophages (J774A.1). IC50 and CC50 were calculated by nonlinear regression using GraphPad Prism statistical software (GraphPad Software, Inc., USA, 500.288). The tested compounds’ selectivity index was expressed as SI = CC50 on […] macrophages/IC50 on promastigotes forms.

[3] = tested on: L. amazonensis promastigotes; assay: Antipromastigote activity, MTT assay; format: cell-based, Leishmania amazonensis; settings: for SI = selectivity index (CC50/IC50): CC50 macrophages / IC50 promastigotes; for IC50: Leishmania amazonensis, L. amazonensis promastigotes, 24 h, MTT, IC50 ± SEM
Protocol: The promastigote forms of L. amazonensis (MHOM/BR/1989/166MJO) were maintained in culture medium 199 (GIBCO, Invitrogen, New York, NY, USA) pH 7.18–7.22 supplemented with 10% fetal bovine serum (FBS) (GIBCO, Invitrogen, New York, NY, USA), 1M HEPES buffer, 1% human urine, 1% L-glutamine, 10 µg/mL streptomycin and 10 U/mL penicillin (GIBCO, Invitrogen, NY, USA) and 10% sodium bicarbonate. The parasite culture was maintained in a B.O.D. incubator at 24 °C in 25 cm^2 culture flasks. In all experiments, promastigote forms in the stationary growth phase were used (5-day culture).
The activities were evaluated by the 3-(4,5-dimethylthiazol-2-yl)-2,5-diphenyltetrazolium bromide (MTT) assay. L. amazonensis promastigote forms (10^6 cells/mL) were placed in 96-well plates and treated with the chalcone derivatives (4a–i) at different concentrations (10, 25, 50, and 130 µM) and maintained in a B.O.D incubator for 24 h at 24 °C. A solution of MTT (10 μL of a 5 mg/mL stock) (Sigma-Aldrich, St. Louis, MO, USA) was added to each well, and after 4 h, the plates were evaluated at λ = 550 nm using a spectrophotometer (Thermo Fisher Scientific, Multiskan GO, Waltham, MA, USA). L. amazonensis promastigotes maintained in culture M199 medium without treatment or with 0.01% DMSO (Sigma-Aldrich, St. Louis, MO, USA) served as negative and vehicle controls. 1 μM amphotericin B (AmB) (Sigma-Aldrich, St. Louis, MO, USA) was used as a positive control. The results of antipromastigote activities were expressed as half-maximal inhibitory concentrations for 50% of parasites (IC50) in μM. The IC50 values were calculated as the average of three independent experiments performed in duplicates.
as §1

[4] = tested on: L. amazonensis promastigotes; assay: ROS generation in promastigotes (H2DCFDA probe); format: cell-based, Leishmania amazonensis; settings: 3.3 μM and 6.6 μM, 24 h
Protocol: As a positive control, hydrogen peroxide (0.4% H2O2) was used, and the vehicle (DMSO 0.01%) was used for a negative control. ROS was measured as an increase in fluorescence caused by converting the non-fluorescent dye to the fluorescent 2.7-dichlorofluorescein, with an excitation wavelength of 488 nm and emission of 530 nm in a fluorescence microplate reader (Victor X3, PerkinElmer, Turku, Finland).

[5] = tested on: L. amazonensis promastigotes; assay: SEM and TEM morphological and ultrastructural analysis; format: cell-based, Leishmania amazonensis; settings: 3.3 μM and 6.6 μM, 24 h
Protocol: SEM was performed to analyze morphological changes in the cell surface topography. […] After the treatment, the parasites were fixed in 2.5% glutaraldehyde (Merck, Darmstadt, Germany) in 0.1 M sodium cacodylate buffer (Sigma-Aldrich, St. Louis, MO, USA) and adhered to coverslips covered with poly-L-lysine (Sigma-Aldrich, St. Louis, MO, USA) for 60 min. Parasites were dehydrated with increasing ethanol (Synth, Diadema, Brazil) concentrations (30–100%), submitted to critical point drying (Baltec SCD-030), metalized with gold, and visualized on a high-resolution double beam electron microscope FEI SCIOS.
To evaluate the ultrastructural changes by TEM, promastigotes were treated and fixed as described above. After the samples were post-fixed with 1% OsO4 (Sigma-Aldrich, St. Louis, MO, USA), 0.8% potassium ferrocyanide (Sigma-Aldrich, St. Louis, MO, USA), and 10.0 mM CaCl2 (Synth, Diadema, Brazil) in 0.1 M sodium cacodylate buffer for 1 h at room temperature and protected from light. Samples were washed in 0.1 M sodium cacodylate buffer, dehydrated in increased concentration of acetone (Synth, Diadema, Brazil) (50–100%), including in EPON resin, and polymerized at 60 °C for 72 h. […]

[6] = tested on: L. amazonensis promastigotes; assay: Mitochondrial membrane potential (TMRE); format: cell-based, Leishmania amazonensis; settings: 3.3 μM and 6.6 μM, 24 h
Protocol: To evaluate if the most promising chalcone (4f) alters the mitochondrial membrane potential, we conducted an assay using a tetramethylrhodamine ethyl ester (TMRE) staining (Sigma-Aldrich, St. Louis, MO, USA). […] Carbonyl cyanide m-chlorophenylhydrazone (100 μM) (CCCP) (Sigma-Aldrich, St. Louis, MO, USA) was used as a positive control, and the vehicle (DMSO 0.01%) was used as a negative control.

| SMILES | IC50 [3] [µM] | CC50 at 24 h [2] [µM] | SI = selectivity index (CC50/IC50) [3] | other results |
| --- | --- | --- | --- | --- |
| COc1ccc(C(=O)/C=C/c2ccc(Br)cc2)c2c(OC)cccc12 [Compound 4i, (E)-3-(4-bromophenyl)-1-(4,8-dimethoxynaphthalen-1-yl)prop-2-en-1-one] | 24.3 ± 0.05 | 434 ± 0.05 | 17.8 |  |
| COc1ccc(C(=O)/C=C/c2ccc(Cl)cc2Cl)c2c(OC)cccc12 [Compound 4e, (E)-3-(2,4-dichlorophenyl)-1-(4,8-dimethoxynaphthalen-1-yl)prop-2-en-1-one] | 37.7 ± 0.06 | 561.1 ± 0.03 |  |  |
| COc1cccc(/C=C/C(=O)c2ccc(OC)c3cccc(OC)c23)c1 [Compound 4b, (E)-1-(4,8-dimethoxynaphthalen-1-yl)-3-(3-methoxyphenyl)prop-2-en-1-one] | 67.1 ± 0.16 | 246.7 ± 0.03 | 3.7 |  |
| COc1ccc(C(=O)/C=C/c2ccccc2)c2c(OC)cccc12 [Compound 4h, (E)-1-(4,8-dimethoxynaphthalen-1-yl)-3-phenylprop-2-en-1-one] | 26.1 ± 0.09 | 872.3 ± 0.134 | 33.44 |  |
| COc1ccc(C(=O)/C=C/c2c(Cl)cccc2Cl)c2c(OC)cccc12 [Compound 4d, (E)-3-(2,6-dichlorophenyl)-1-(4,8-dimethoxynaphthalen-1-yl)prop-2-en-1-one] | 94.1 ± 0.06 | 126.8 ± 0.09 |  |  |
| COc1ccc(/C=C/C(=O)c2ccc(OC)c3cccc(OC)c23)cc1 [Compound 4a, (E)-1-(4,8-dimethoxynaphthalen-1-yl)-3-(4-methoxyphenyl)prop-2-en-1-one] | 264.1 ± 0.12 | 414.8 ± 0.04 | 1.7 |  |

These reach a lower IC50 [3]. Values come first.

| IC50 [3] [µM] | SMILES | CC50 at 24 h [2] [µM] | SI = selectivity index (CC50/IC50) [3] | other results |
| --- | --- | --- | --- | --- |
| 0.68 ± 0.21 | C[C@@H]1[C@H](O)[C@@H](C)/C=C/C=C/C=C/C=C/C=C/C=C/C=C/[C@H](O[C@@H]2O[C@H](C)[C@@H](O)[C@H](N)[C@@H]2O)C[C@@H]2O[C@](O)(C[C@@H](O)C[C@@H](O)[C@H](O)CC[C@@H](O)C[C@@H](O)CC(=O)O[C@H]1C)C[C@H](O)[C@H]2C(=O)O [AmB, Amphotericin B, reference compound] | 49.7 | 73.17 | reduction in the percentage of infected macrophages ([1]; 1 μM, positive control): 95.25 ± 0.65%; reduction of number of amastigotes per macrophage ([1]; 1 μM, positive control): 89.55 ± 0.05% |
| 13.4 ± 0.08 | COc1ccc(C(=O)/C=C/c2ccc(Cl)c(Cl)c2)c2c(OC)cccc12 [Compound 4c, (E)-3-(3,4-dichlorophenyl)-1-(4,8-dimethoxynaphthalen-1-yl)prop-2-en-1-one] | 194.3 ± 0.06 | 14.5 |  |
| 14.5 ± 0.09 | COc1ccc(C(=O)/C=C/c2cccc([N+](=O)[O-])c2)c2c(OC)cccc12 [Compound 4g, (E)-1-(4,8-dimethoxynaphthalen-1-yl)-3-(3-nitrophenyl)prop-2-en-1-one] | 366 ± 0.13 | 23.2 |  |
| 3.3 ± 0.34 | COc1ccc(C(=O)/C=C/c2ccc([N+](=O)[O-])cc2)c2c(OC)cccc12 [Compound 4f, (E)-1-(4,8-dimethoxynaphthalen-1-yl)-3-(4-nitrophenyl)prop-2-en-1-one] | 372.9 ± 0.04 | 112.6 | intracellular ROS levels (DCF fluorescence) [4]: substantial rise in the intracellular ROS levels; reduction of number of amastigotes per macrophage ([1]; 10 μM, compared to controls): 14.14 ± 0.04%; reduction of infected macrophages ([1]; 10 μM): 23.81 ± 1.07%; reduction of number of amastigotes per macrophage ([1]; 25 μM, compared to controls): 36.20 ± 0.02%; reduction of infected macrophages ([1]; 25 μM): 35.78 ± 1.59%; reduction of number of amastigotes per macrophage ([1]; 50 μM, compared to controls): 39.33 ± 0.03%; reduction of infected macrophages ([1]; 50 μM): 42.15 ± 0.49%; reduction of infected macrophages ([1]; 130 μM): 63.04 ± 0.35%; IC50 ([1]; Leishmania amazonensis, J774.A1, L. amazonensis-infected J774A.1 macrophages): 18.5 ± 1.19 µM; ultrastructural changes (TEM) [5]: an increase in autophagic vacuoles, lipid-storage bodies accumulation, mitochondrial swelling, and nuclear alterations; mitochondrial membrane potential (ΔΨm), TMRE [6]: reduces the potential of the mitochondrial membrane (ΔΨm) |
